Reference: patent US20220273638A1 (Belina Pharma AB, priority 2019, published 2022)

Columns and labels:
[1] = Nation-wide register-based study, Cox regression: overall mortality/survival by antihistamine use; format: in vivo, human; conditions: hazard ratio versus non-users
Protocol: (§1) Both peri- and post-diagnostic antihistamine use was analyzed, using Cox regression models, as well as different subgroups of patients with regard to age, gender (as a proxy for sex) and tumor status.
(§2) Our study population included all of the 35,905 individuals with newly diagnosed melanoma from 2005 through 2014, identified using the Swedish National Quality Register for Malignant Skin Melanoma (hereafter referred to as the Melanoma Register), a database comprising all cases of malignant melanoma of the skin in Sweden since 1990. Melanoma in situ is not included in this register, nor melanoma in any other site than the skin. It has a coverage of approximately 98%, and in addition to variables such as age and TNM status, the Melanoma Register also includes information on the histopathology of the tumors, such as Breslow and Clark measures. Use of the six major antihistamines was established using the Swedish Prescribed Drug Register, a record of all dispensed prescribed pharmaceuticals in Sweden since July 1st 2005. To be included in the registry at least 2 weeks of prescription is required. Prescription free antihistamine use, non-dispensed doses, or use of other, less common, types of antihistamines is here considered non-use. Causes of death were obtained from the Swedish Cause of Death Register, a database where all deaths have been recorded since 1952. Data was pseudo-anonymized and the study was approved by the Regional Ethics Board.
(§3) For the cumulative post-diagnostic antihistamine use analysis, mortality rates for antihistamine users were compared to those of non-users through a Cox regression model allowing for time varying covariates, and survival time was measured in years since diagnosis. This allowed for a single individual to provide data as both a non-user and user of different antihistamines.
(§4) The impact of the cumulative DDDs was assessed after log transformation of the DDDs plus one3. Cox regression analyses were stratified for patient age at diagnosis, tumor size and node status (T and N status, respectively). A lag-time analysis was performed as described by Tamim et al. and Richardson et al. Statistical analyses were performed using R version XXX6.

[2] = for HR, melanoma specific survival adjusted for Breslow thickness / HR, melanoma specific survival adjusted for Breslow thickness and lymph gland metastases: hazard ratio versus non-users; for effect on melanoma survival: regardless of age, gender and tumor status; for survivability, comparative results adjusted for Breslow thickness: tables 1 and 2, adjusted for Breslow thickness
Protocol: as §1, §2, §3, §4

[3] = use 6 months before and after diagnosis; adjusted for Breslow, sentinel lymph node status and education level
[4] = somnolence, tachycardia and headache reported; cited from earlier work
[5] = Risk of developing a second (new primary) melanoma after the first melanoma diagnosis; format: in vivo, human; conditions: for HR, risk of a new primary melanoma: use longer than 3 years after the first diagnosis, adjusted for age and sex, p<0.05

With `CN1CCC[C@@H]1CCO[C@](C)(c1ccccc1)c1ccc(Cl)cc1` [Clemastine, clemastine] the “HR, overall survival adjusted for Breslow thickness” value [1] was 1.114, the “HR, overall survival adjusted for Breslow thickness and lymph gland metastases” value [1] was 1.101 and the “HR, melanoma specific survival adjusted for Breslow thickness” value [2] was 1.027. The “HR, melanoma specific survival adjusted for Breslow thickness and lymph gland metastases” value [2] was 0.993, the “effect on melanoma survival” value [2] was “consistently negative effect” and the “survivability, comparative results adjusted for Breslow thickness” value (“survivability … for Breslow thickness” for short) [2] was “lack of improval of survivability”. For the same molecule, the “HR, peridiagnostic use, melanoma mortality” value (“HR, peridiagnostic use” for short) [3] was 1.005.
In the case of `CCOC(=O)N1CCC(=C2c3ccc(Cl)cc3CCc3cccnc32)CC1` [Loratadine, loratadine], the “HR, overall survival adjusted for Breslow thickness” value [1] is given as 0.962, the “HR, overall survival adjusted for Breslow thickness and lymph gland metastases” value [1] is given as 0.964 and the “symptoms in connection with overdoses” value [4] is given as “increase the incidence of anticholinergic symptoms”. For the same molecule, the “risk of a new primary melanoma, follow up counted from day 1” value [5] was “No significant difference”, the “HR, risk of a new primary melanoma” value [5] was 0.88 and the “HR, melanoma specific survival adjusted for Breslow thickness” value [2] was 0.858. The “HR, melanoma specific survival adjusted for Breslow thickness and lymph gland metastases” value [2] was 0.851, the “effect on melanoma survival” value [2] was “consistently beneficial effect” and the “HR, peridiagnostic use” value [3] was 0.534.
With `O=C(O)COCCN1CCN(C(c2ccccc2)c2ccc(Cl)cc2)CC1` (centres unmarked) [Cetirizine, cetirizine] the “HR, overall survival adjusted for Breslow thickness” value [1] was 1, the “HR, overall survival adjusted for Breslow thickness and lymph gland metastases” value [1] was 0.991 and the “HR, melanoma specific survival adjusted for Breslow thickness” value [2] was 1.006. For the same molecule, the “HR, melanoma specific survival adjusted for Breslow thickness and lymph gland metastases” value [2] was 1.014, the “survivability … for Breslow thickness” value [2] was “lack of improval of survivability” and the “HR, peridiagnostic use” value [3] was 0.962.
In the case of `CC(C)(C(=O)O)c1ccc(C(O)CCCN2CCC(C(O)(c3ccccc3)c3ccccc3)CC2)cc1` (centres unmarked) [Fexofenadine, fexofenadine], the “HR, overall survival adjusted for Breslow thickness” value [1] is reported as 1.011, the “HR, overall survival adjusted for Breslow thickness and lymph gland metastases” value [1] is reported as 1.013 and the “HR, melanoma specific survival adjusted for Breslow thickness” value [2] is reported as 0.979. For the same molecule, the “HR, melanoma specific survival adjusted for Breslow thickness and lymph gland metastases” value [2] was 0.935, the “survivability … for Breslow thickness” value [2] was “lack of improval of survivability” and the “HR, peridiagnostic use” value [3] was 0.901.
With `Clc1ccc2c(c1)CCc1cccnc1C2=C1CCNCC1` [Desloratadine, desloratadine] the “HR, overall survival adjusted for Breslow thickness” value [1] was 0.95, the “HR, overall survival adjusted for Breslow thickness and lymph gland metastases” value [1] was 0.953 and the “risk of a new primary melanoma, follow up counted from day 1” value [5] was “No significant difference”. The “HR, risk of a new primary melanoma” value [5] was 0.88, the “melanoma specific mortality HR, Men <65” value ([2]; Men <65, 95% CI in brackets) was 0.69 (0.37-1.29) and the “melanoma specific mortality HR, Men >65” value ([2]; Men >65, 95% CI in brackets) was 0.77 (0.45-1.33). The “melanoma specific mortality HR, Women <65” value ([2]; Women <65, 95% CI in brackets) was 0.57 (0.25-1.28), the “melanoma specific mortality HR, Women >65” value ([2]; Women >65, 95% CI in brackets) was 0.80 (0.44-1.45) and the “melanoma specific mortality HR, looking at DDD:s” value ([2]; by defined daily doses (DDDs), 95% CI in brackets) was 0.93 (0.87-1.00). The “HR, melanoma specific survival adjusted for Breslow thickness” value [2] was 0.883, the “HR, melanoma specific survival adjusted for Breslow thickness and lymph gland metastases” value [2] was 0.889 and the “effect on melanoma survival” value [2] was “consistently beneficial effect”. The “HR, peridiagnostic use” value [3] was 0.569.
In the case of `CC(C)(C)c1ccc(C(=O)CCCN2CCC(OC(c3ccccc3)c3ccccc3)CC2)cc1` [Ebastine, ebastine], the “HR, overall survival adjusted for Breslow thickness” value [1] is reported as 1.117, the “HR, overall survival adjusted for Breslow thickness and lymph gland metastases” value [1] is reported as 1.076 and the “HR, melanoma specific survival adjusted for Breslow thickness” value [2] is reported as 1.138. The “HR, melanoma specific survival adjusted for Breslow thickness and lymph gland metastases” value [2] was 1.03, the “survivability … for Breslow thickness” value [2] was “lack of improval of survivability” and the “HR, peridiagnostic use” value [3] was 1.032.
